IC50 data for three compounds are collected here from patent publication US20250206740A1, “PIPERIDINYL-METHYLPURINE PYRIMIDINES AND RELATED COMPOUNDS AND THEIR USE IN TREATING DISEASES AND CONDITIONS” (K36 Therapeutics, Inc., priority 2022, published 2025).

The structures appear in SMILES notation.

This test concerns the target recombinant human NSD2 (Homo sapiens (Human), UniProt O96028). Briefly: NSD2 inhibitory activity, modified RBC HotSpot HMT Assay (radiometric, 3H-SAM, oligonucleosome substrate). The conditions noted are these: recombinant human NSD2 2 nM, oligonucleosomes from Chicken 0.05 mg/ml, 3H-SAM 1 μM, 1 hour at 30° C. Type of test: biochemical. As for the experimental part:
Exemplary compounds were tested for NSD2 inhibitory activity using a modified RBC HotSpot HMT Assay.
A reaction mixture was prepared by adding oligonucleosomes from Chicken (0.05 mg/ml) to freshly prepared reaction buffer containing 50 mM Tris-HCl (pH 8.5), 50 mM NaCl, 5 mM MgCl2, 0.01% Brij35, 1 mM DTT, and 1% DMSO followed by the addition of recombinant human NSD2, (amino acids 2-end) with N-terminal His tag (2 nM; GenBank Accession No. NM_001042424; MW=155.5 kDa; expressed in Sf9 insect cells) and gentle mixing. The test compounds were diluted in DMSO, added to the reaction mixture in nanoliter amounts by using Acoustic Technology (Echo 550, LabCyte Inc. Sunnyvale, CA) and incubated for 20 minutes at room temperature. The reaction was initiated by the addition of S-Adenosyl-L-[methyl-^3H] methionine (3H-SAM; 1 μM), and the mixture was incubated for 1 hour at 30° C. The reaction mixture was delivered to filter paper and the methylated substrate was quantified by scintillation counting. Data analysis was performed using Excel and GraphPad Prism software for IC50 curve fits. For additional information on the histone methyltransferase assay, see, for example, Horiuchi K Y, et al., “Assay Development for Histone Methyltransferases,” Assay Drug Dev Technol. 2013 May; 11 (4): 227-36.

Sequence of recombinant human NSD2 (O96028 2-1365 limits assumed): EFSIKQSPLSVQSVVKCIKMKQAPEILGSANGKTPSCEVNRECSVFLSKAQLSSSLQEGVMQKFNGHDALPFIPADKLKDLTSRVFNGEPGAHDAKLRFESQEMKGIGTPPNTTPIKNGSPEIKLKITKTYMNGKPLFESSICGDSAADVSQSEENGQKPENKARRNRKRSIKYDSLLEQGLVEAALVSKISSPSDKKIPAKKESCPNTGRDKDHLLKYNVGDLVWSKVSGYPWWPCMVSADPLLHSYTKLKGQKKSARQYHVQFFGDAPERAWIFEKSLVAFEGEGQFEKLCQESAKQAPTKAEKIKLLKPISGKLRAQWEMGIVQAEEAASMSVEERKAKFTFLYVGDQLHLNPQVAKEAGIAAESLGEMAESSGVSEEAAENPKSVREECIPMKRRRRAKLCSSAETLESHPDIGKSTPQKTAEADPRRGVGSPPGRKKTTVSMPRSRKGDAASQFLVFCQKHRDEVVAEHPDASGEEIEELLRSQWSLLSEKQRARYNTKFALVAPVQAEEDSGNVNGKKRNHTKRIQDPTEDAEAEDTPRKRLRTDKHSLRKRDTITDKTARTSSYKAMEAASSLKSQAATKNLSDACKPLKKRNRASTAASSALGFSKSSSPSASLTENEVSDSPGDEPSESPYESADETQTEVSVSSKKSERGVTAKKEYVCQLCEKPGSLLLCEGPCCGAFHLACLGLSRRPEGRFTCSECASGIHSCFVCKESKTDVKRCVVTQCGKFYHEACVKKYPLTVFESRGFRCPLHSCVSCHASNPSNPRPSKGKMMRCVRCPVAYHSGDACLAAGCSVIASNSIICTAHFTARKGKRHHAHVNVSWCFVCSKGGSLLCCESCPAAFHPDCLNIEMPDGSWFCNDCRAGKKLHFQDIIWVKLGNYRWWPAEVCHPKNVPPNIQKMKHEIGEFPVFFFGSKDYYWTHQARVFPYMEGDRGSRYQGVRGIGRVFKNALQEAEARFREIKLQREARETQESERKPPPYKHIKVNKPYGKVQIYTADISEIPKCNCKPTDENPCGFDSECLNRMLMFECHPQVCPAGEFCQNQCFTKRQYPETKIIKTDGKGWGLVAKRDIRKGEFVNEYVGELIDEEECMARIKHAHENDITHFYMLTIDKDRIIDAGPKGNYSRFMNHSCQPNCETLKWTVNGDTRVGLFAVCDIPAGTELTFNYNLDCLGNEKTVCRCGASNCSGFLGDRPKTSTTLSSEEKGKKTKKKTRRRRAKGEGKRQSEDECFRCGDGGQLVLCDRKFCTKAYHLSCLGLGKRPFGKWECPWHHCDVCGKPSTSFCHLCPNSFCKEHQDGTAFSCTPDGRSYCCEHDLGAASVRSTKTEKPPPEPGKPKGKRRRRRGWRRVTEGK

Turning to `COc1cc(F)c(-c2ncc(N3CCC[C@](N)([C@H](O)C(F)F)C3)c(Cn3cnc4c(N)ncnc43)n2)cc1F` [Compound I-1, (S)-1-((R)-3-amino-1-(4-((6-amino-9H-purin-9-yl)methyl)-2-(2,5-difluoro-4-methoxyphenyl)pyrimidin-5-yl)piperidin-3-yl)-2,2-difluoroethan-1-ol], the IC50 lay in the range of 100 to 1000 nM.
Then `COc1cc(F)c(-c2cc(Cn3cnc4c(N)ncnc43)c(N3CCC[C@](N)([C@H](O)C(F)F)C3)nn2)cc1F` [Compound I-6, (S)-1-((R)-3-amino-1-(4-((6-amino-9H-purin-9-yl)methyl)-6-(2,5-difluoro-4-methoxyphenyl)pyridazin-3-yl)piperidin-3-yl)-2,2-difluoroethan-1-ol], with 100 to 1000 nM.
With `COc1cc(F)c(-c2nc(Cn3cnc4c(N)ncnc43)c(N3CCC[C@@](N)([C@H](O)C(F)F)C3)s2)cc1F` [II-2] the figure was 10 to 100 nM.

The IC50 is the concentration needed to halve the response being measured.
